Source: US7550469B2, “Heterocyclic amide derivatives and their use as dopamine D3 receptor ligands” (Aventis Pharmaceuticals Inc., priority 2001, dated 2009)
Read-outs that look alike come from different tables or passages of the source.

Molecular target: T1, cloned human dopamine D3 receptors (Homo sapiens, UniProt P35462)
T1 construct: expressed in transfected cells; membrane homogenate
Test: [N-Methyl-3H]Spiroperidol binding to cloned human dopamine D3 receptors (Protocol 1)
Procedure, shortened: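 Membranes from CHO cells stably expressing cloned human D3 receptor were used for [N-methyl-3H]spiroperidol (60-90 Ci/mmol) binding. Assay buffer was 0.05 M Tris HCl pH 7.7 with 120 mM NaCl, 5 mM KCl, 2 mM CaCl2 and 1 mM MgCl2, optionally 0.1% ascorbic acid; total ligand concentration calculated from added CPM.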

[1] = the 21st table, read-out: D3 Ki
[2] = the 13th table, unit inferred, read-out: D3Ki
[3] = the 15th table, read-out: D3 Ki
[4] = the 22nd table, read-out: D3 Ki
[5] = the 23rd table, read-out: D3 Ki
[6] = the 14th table, read-out: D3 Ki
[7] = the 16th table, read-out: D3 Ki
[8] = the 18th table, read-out: D3 Ki
[9] = the 26th table, read-out: D3 Ki

T1 sequence (P35462 whole entry): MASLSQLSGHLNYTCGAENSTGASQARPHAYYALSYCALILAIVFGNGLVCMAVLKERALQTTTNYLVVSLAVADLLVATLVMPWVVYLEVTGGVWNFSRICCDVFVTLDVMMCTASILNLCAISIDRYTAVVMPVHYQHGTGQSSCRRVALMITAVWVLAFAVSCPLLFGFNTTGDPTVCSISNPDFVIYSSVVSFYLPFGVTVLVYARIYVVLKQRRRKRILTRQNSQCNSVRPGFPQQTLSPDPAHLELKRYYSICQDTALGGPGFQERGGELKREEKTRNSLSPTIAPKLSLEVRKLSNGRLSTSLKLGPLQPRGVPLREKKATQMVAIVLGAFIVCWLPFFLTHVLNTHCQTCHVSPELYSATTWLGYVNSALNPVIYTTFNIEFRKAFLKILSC

`C[C@@H]1CN(c2csc3cc(C(F)(F)F)ccc23)C[C@H](C)N1CCCCNC(=O)c1cccnc1Cl` [compound 826938] gave a Ki [1] of 175 nM.

Work on `Cn1cccc1C(=O)NCCCCN1CCCN(c2csc3cc(F)ccc23)CC1` [S977828] yielded a Ki [2] of 6.97 nM.

Work on `CC(=O)C1CC(CC(=O)NC/C=C/CN2CCN(c3csc4cc(C(F)(F)F)ccc34)CC2)C1(C)C` (centres unmarked) [compound 827741] yielded a Ki (Table 2, read-out: D3K1) of 246 nM.

Compound `O=C(NCCCCN1C2CCC1CC(c1noc3ccccc13)C2)c1ccccc1[N+](=O)[O-]` (centres unmarked) [compound 816537] has a Ki [3] of 411 nM.

In the case of `COc1ccc(C(=O)NCCCCN2C3CCC2CC(c2noc4ccccc24)C3)cc1` (centres unmarked) [compound 816534], the Ki [3] is reported as 149 nM.

With `CCOc1ccc(C(=O)NCCCCN2CCN(c3c(Cl)sc4cc(F)ccc34)CC2)cc1` [compound 815052] the Ki (read-out: D3K1) was 5.4 nM.

Work on `O=C(NCCCCN1CCN(c2nn(C(=O)c3ccc(F)c(F)c3)c3ccsc23)CC1)c1ccc(F)c(F)c1` [compound 825150] yielded a Ki [4] of 199 nM.

For `O=C(NCCCCN1CCN(c2c(Cl)sc3cc(C(F)(F)F)ccc23)CC1)c1ccc(Br)cc1` [compound 815571], the Ki (read-out: D3K1) was 34.2 nM.

Work on `FC(F)(F)c1ccc2c(N3CCN(CC4CC4CN4CCC(N5CCCC5)CC4)CC3)csc2c1` (racemic) [compound 832568] yielded a Ki [5] of 46.2 nM.

`O=C(NCCCCCCN1CCN(c2csc3cc(C(F)(F)F)ccc23)CC1)c1cc2ccccc2s1` [compound 826754] gave a Ki (read-out: D3K1) of 3.2 nM and a Ki [6] of 3.2 nM.

Work on `O=C(NCCCN1CCCN(c2csc3cc(F)ccc23)CC1)c1cccc(Cl)c1` [compound 827135] yielded a Ki (Table 2, read-out: D3K1) of 141 nM and a Ki [7] of 141 nM.

With `O=C(NCCCCN1CCN(c2c(Cl)sc3cc(C(F)(F)F)ccc23)CC1)c1ccc(F)cc1F` [compound 815561] the Ki (read-out: D3K1) was 41 nM.

Compound `COc1ccc(OC(=O)NCC2CC2CN2CCC(c3noc4ccsc34)CC2)cc1` (centres unmarked) [compound 831671] has a Ki (D3 Ki (nM), the 25th table) of 96.4 nM.

`O=C(NCCCCN1CCCN(c2csc3cc(C(F)(F)F)ccc23)CC1)c1ccc(-c2ccccc2F)cc1` [S908665] gave a Ki [2] of 20.3 nM.

`O=C(NCCCCN1CCN(c2c(Cl)sc3cc(F)ccc23)CC1)c1ccccc1Br` [compound 815070] gave a Ki (read-out: D3K1) of 34.4 nM.

With `O=C(NC/C=C/CN1CCN(c2csc3cc(C(F)(F)F)ccc23)CC1)c1ccsc1` [compound 827710] the Ki (read-out: D3K1) was 31 nM.

For `Cn1c(C(=O)NCCCCN2CCCN(c3csc4cc(F)ccc34)CC2)cc2ccccc21` [S977821], the Ki [2] was 1.65 nM.

With `CCOc1cccc2cc(C(=O)NCCCCN3CCCN(c4csc5cc(F)ccc45)CC3)oc12` [compound 827133] the Ki (Table 2, read-out: D3K1) was 12.6 nM and the Ki [7] was 12.6 nM.

With `O=C(NCCCCCCN1CCN(c2csc3cc(C(F)(F)F)ccc23)CC1)c1ccc2ccccc2c1` [compound 826751] the Ki (read-out: D3K1) was 2.8 nM and the Ki [6] was 2.8 nM.

Compound `CC1(C)C(CNC(=O)Cc2ccccc2)C1CN1CCN(c2csc3cc(C(F)(F)F)ccc23)CC1` (centres unmarked) [compound 826281] has a Ki (read-out: D3K1) of 73.2 nM.

`O=C(NCCCCN1CCCN(c2csc3cc(F)ccc23)CC1)c1cnc2ccccc2n1` [compound 822200] showed a Ki [2] of 10.6 nM.

In the case of `COc1ccccc1C(=O)NCCCCN1C2CCC1CC(c1noc3ccccc13)C2` (centres unmarked) [compound 816525], the Ki [3] is reported as 148 nM.

With `CSc1ncccc1C(=O)NCCCCN1C2CCC1CC(c1noc3cc(F)ccc13)C2` (centres unmarked) [compound 816338] the Ki [3] was 692 nM.

For `O=C(NCCCCN1CCN(c2c(Cl)sc3cc(F)ccc23)CC1)c1c(F)cccc1F` [compound 815069], the Ki (read-out: D3K1) was 15 nM.

Compound `COc1cccc(C(=O)NC/C=C/CN2CCN(c3csc4cc(C(F)(F)F)ccc34)CC2)c1` [compound 827722] has a Ki (read-out: D3K1) of 59 nM.

Compound `C[C@@H]1CN(c2csc3cc(F)ccc23)C[C@H](C)N1CCCCNC(=O)c1c[nH]c2ccccc12` [compound 826962] has a Ki [1] of 79.8 nM.

With `COc1ccc(C(=O)NCCCCN2C3CCC2CC(c2noc4cc(F)ccc24)C3)cc1OC` (centres unmarked) [compound 816332] the Ki [3] was 588 nM.

`CC(=O)Nc1ccc(C(=O)N[C@H](CO)CCCN2CCN(c3csc4cc(C(F)(F)F)ccc34)CC2)cc1` [compound 815691] gave a Ki (Table 2, read-out: D3K1) of 241 nM, a Ki (read-out: D3K1) of 241 nM and a Ki [6] of 241 nM.

Compound `O=C(NCC1CCC1CN1CCN(c2csc3cc(C(F)(F)F)ccc23)CC1)c1cc2ccccc2s1` (centres unmarked) [compound 826292] has a Ki (read-out: D3K1) of 200 nM.

With `O=C(NCCCCCN1CCN(c2csc3cc(C(F)(F)F)ccc23)CC1)c1cc2ccccc2o1` [compound 826803] the Ki (Table 2, read-out: D3K1) was 16.9 nM and the Ki [6] was 16.9 nM.

Work on `O=C(NCCCCCN1CCCN(c2csc3cc(F)ccc23)CC1)c1csnn1` [S984498] yielded a Ki [2] of 39.5 nM.

`C[C@@H]1CN(c2csc3cc(C(F)(F)F)ccc23)C[C@H](C)N1CCCCNC(=O)c1ccc(-c2ccccc2)cc1` [compound 826933] showed a Ki [1] of 276 nM.

For `C[C@@H]1CN(c2csc3cc(F)ccc23)C[C@H](C)N1CCCCNC(=O)c1ccc(C(F)(F)F)cc1` [compound 826946], the Ki [1] was 35.9 nM.

`C[C@@H]1CN(c2csc3cc(F)ccc23)C[C@H](C)N1CCCCNC(=O)c1ccc2ccccc2c1` [compound 827051] showed a Ki [1] of 29.5 nM.

`O=C(NCC(CO)CCN1CCN(c2csc3cc(C(F)(F)F)ccc23)CC1)c1ccsc1` (centres unmarked) [818927ES] was tested, and the Ki (Table 2, read-out: D3K1) was 164 nM.

Compound `C[C@@H]1CN(c2csc3cc(F)ccc23)C[C@H](C)N1CCCCNC(=O)c1n[nH]c2ccccc12` [compound 826966] has a Ki [1] of 77.1 nM.

`O=C(NCCCCN1CCCN(c2csc3cc(F)ccc23)CC1)c1ccno1` [S981836] was tested, and the Ki [2] was 46 nM.

With `O=C(NCc1sccc1CN1CCN(c2csc3cc(F)ccc23)CC1)c1ccc(F)cc1` [compound 826304] the Ki [8] was 84 nM.

`C[C@@H]1CN(c2csc3cc(F)ccc23)C[C@H](C)N1CCCCNC(=O)c1cc2ccccc2n1C` [compound 826961] showed a Ki [1] of 51.2 nM.

`O=C(NCCCCN1CCN(c2c(-c3ccccc3)sc3cc(F)ccc23)CC1)c1cccc(F)c1` [compound 815870] showed a Ki (Table 2, read-out: D3K1) of 28.4 nM and a Ki [6] of 28.4 nM.

For `OC(CCN1CCC(c2noc3ccsc23)CC1)CN1CCN(c2ccc(F)cc2)CC1` (centres unmarked) [compound 831939], the Ki [9] was 90 nM.

With `COc1ccc(C(=O)NCCCCN2[C@H](C)CN(c3csc4cc(C(F)(F)F)ccc34)C[C@@H]2C)cc1OC` [compound 826930] the Ki [1] was 74.7 nM.

`CSCCCNC[C@@H]1C[C@H]1CN1CCN(c2csc3cc(C(F)(F)F)ccc23)CC1` [compound 832280] gave a Ki [5] of 19.2 nM.

Work on `COc1cc(OC)cc(C(=O)NCCCCCN2CCN(c3csc4cc(F)ccc34)CC2)c1` [compound 826776] yielded a Ki [6] of 1.27 nM.

In the case of `OC(CCN1CCC(c2noc3ccsc23)CC1)CNCCc1ccccc1` (centres unmarked) [compound 831945], the Ki [9] is reported as 700 nM.

For `Cc1ccccc1C(=O)NCc1sccc1CN1CCN(c2csc3cc(F)ccc23)CC1` [compound 826306], the Ki [8] was 89 nM.

For `Cc1ccccc1C(=O)NCCCCCN1CCN(c2csc3cc(C(F)(F)F)ccc23)CC1` [compound 826771], the Ki (read-out: D3K1) was 6.7 nM and the Ki [6] was 6.7 nM.

`O=C(NCCCCCCN1CCN(c2csc3cc(C(F)(F)F)ccc23)CC1)c1cccs1` [compound 826746] showed a Ki (read-out: D3K1) of 0.8 nM and a Ki [6] of 0.8 nM.

With `COc1ccc(/C=C/C(=O)NC/C=C/CN2CCN(c3csc4cc(C(F)(F)F)ccc34)CC2)cc1` [compound 827739] the Ki (Table 2, read-out: D3K1) was 22.4 nM.

Work on `C[C@@H]1CN(c2csc3cc(C(F)(F)F)ccc23)C[C@H](C)N1CCCCNC(=O)c1ccncc1` [compound 826937] yielded a Ki [1] of 253 nM.

`O=C(COc1ccccc1)NC/C=C/CN1CCN(c2csc3cc(C(F)(F)F)ccc23)CC1` [compound 827725] was tested, and the Ki (read-out: D3K1) was 120 nM.

With `CC(C)(C)OC(=O)Cn1c(C(=O)NCCCCN2CCCN(c3csc4cc(F)ccc34)CC2)cc2ccccc21` [compound 817271] the Ki (Table 2, read-out: D3K1) was 326 nM and the Ki [7] was 326 nM.

`O=C(NCC(CO)CCN1CCN(c2csc3cc(C(F)(F)F)ccc23)CC1)c1ccco1` (centres unmarked) [818924ES] gave a Ki (Table 2, read-out: D3K1) of 318 nM.

In the case of `Cc1ccccc1C(=O)NCCCCN1[C@H](C)CN(c2csc3cc(C(F)(F)F)ccc23)C[C@@H]1C` [compound 826931], the Ki [1] is reported as 219 nM.

With `CCCCOc1ccc(C(=O)NCCCCN2C3CCC2CC(c2noc4cc(F)ccc24)C3)cc1` (centres unmarked) [compound 816325] the Ki [3] was 58.3 nM.

In the case of `O=C(NCCCCN1CCN(c2noc3ccsc23)CC1)c1cccs1` [compound 829687], the Ki [4] is reported as 50.3 nM.

In the case of `O=C(NCCCCN1CCN(c2c(-c3ccccc3)sc3cc(F)ccc23)CC1)c1ccc(Cl)cc1` [compound 815880], the Ki (Table 2, read-out: D3K1) is reported as 837 nM.

`CN(C)c1cccc(C(=O)NCCCCN2CCCN(c3csc4cc(F)ccc34)CC2)c1` [compound 817268] was tested, and the Ki (Table 2, read-out: D3K1) was 7.1 nM and the Ki [7] was 7.1 nM.

For `O=C(NCCC(CO)CN1CCN(c2csc3cc(C(F)(F)F)ccc23)CC1)c1ccc2[nH]ccc2c1` (centres unmarked) [818620ES], the Ki (Table 2, read-out: D3K1) was 246 nM.

`O=C(NCCCCN1CCCN(c2csc3cc(C(F)(F)F)ccc23)CC1)c1cc2ccccc2s1` [S980636] was tested, and the Ki [2] was 18 nM.

Work on `O=C(NCCCCCN1CCCN(c2csc3cc(F)ccc23)CC1)c1cc(-c2ccco2)nc2ccccc12` [compound 827159] yielded a Ki (Table 2, read-out: D3K1) of 5.85 nM and a Ki [7] of 5.85 nM.

`O=C(NCCCCN1CCCN(c2csc3cc(C(F)(F)F)ccc23)CC1)c1cccc(F)c1` [S980635] showed a Ki [2] of 71 nM.

`O=C(NCC1CCC1CN1CCN(c2csc3cc(C(F)(F)F)ccc23)CC1)c1cc2ccccc2[nH]1` (centres unmarked) [compound 826290] was tested, and the Ki (read-out: D3K1) was 72 nM.

`O=C(Cc1cccs1)NCCCCN1CCN(c2c(-c3ccccc3)sc3cc(F)ccc23)CC1` [compound 815884] showed a Ki (Table 2, read-out: D3K1) of 296 nM.

`O=C(NC/C=C\CN1CCN(c2csc3cc(C(F)(F)F)ccc23)CC1)c1ccc(OC(F)(F)F)cc1` [compound 826348] showed a Ki (read-out: D3K1) of 61 nM.

`O=C(Cc1cc2ccccc2s1)NCCCCCN1CCC(c2noc3ccsc23)CC1` [compound 816206] was tested, and the Ki [2] was 505 nM.

With `C[C@H]1CC[C@H](NC[C@@H]2C[C@H]2CN2CCC(c3noc4c(C(F)(F)F)cccc34)CC2)CC1` [compound 832275] the Ki [5] was 33.6 nM.

With `O=C(NCCCCCN1CCN(c2csc3cc(C(F)(F)F)ccc23)CC1)c1n[nH]c2ccccc12` [compound 826801] the Ki (read-out: D3K1) was 49.8 nM and the Ki [6] was 49.8 nM.

For `O=C(NCCCCN1CCCN(c2csc3cc(C(F)(F)F)ccc23)CC1)c1cccs1` [S980627], the Ki [2] was 40 nM.
